Data: the supplement of paper PMC6470124

Key:
[1] = LC retention time (Atlantis T3, 5-95% MeOH gradient, 0.1% formic acid); higher = more retained / less polar
In short: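 Retention times were recorded for reference standards (purity ≥ 95%) on a polar reversed-phase C18 column (Atlantis T3, 3 × 150 mm, 3 μm) at 0.3 mL/min. Elution used water and methanol, each with 0.1% formic acid, in a gradient from 5 to 95% methanol over 17.5 min. Detection was by high-resolution tandem mass spectrometry on a QExactive Plus, with positive and negative electrospray in separate runs. Peaks were found and integrated in TraceFinder (5 ppm tolerance, at least three points per peak) and then checked by hand.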

[2] = absolute recovery over mixed-bed multilayer solid-phase extraction; higher = better recovery; conditions: enrichment method: SPE
In short: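 Absolute recovery rests on background-corrected response ratios of pre- versus post-spiked samples, averaged over at least two replicates. Wastewater (100–250 mL, pH 6.5, glass-fibre filtered) was spiked at 1000 ng/L and unfiltered nanopure water (1000 mL) at 200 ng/L, before or after three-layer mixed-bed cartridge extraction or not at all, with exceptions for some classes. Analysis after internal standard addition used liquid chromatography with high-resolution tandem mass spectrometry in both ionisation modes.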

Row | SMILES | LC retention time [1] [min] | absolute recovery ([2]; nanopure water) [%] | absolute recovery ([2]; surface water) [%] | absolute recovery ([2]; wastewater effluent) [%] | absolute recovery ([2]; wastewater influent) [%]
1 | O=[N+]([O-])c1ccc(C2OC2c2ccc([N+](=O)[O-])cc2S(=O)(=O)[O-])c(S(=O)(=O)[O-])c1 (stereo not drawn) [1-2-Bis-(4-4-dinitro-2-2-disulfonic acid-phenylethylenoxide] | 19.7 | 106 | – | – | –
2 | COC(=O)c1ccccc1S(N)(=O)=O [2-Aminosulfonyl-benzoicacid-methylester] | 12.9 | 118 | 101 | 102 | 91.4
3 | Nc1ccc2c(S(=O)(=O)[O-])cccc2c1S(=O)(=O)[O-] [2-amino-1-5-napthalenedisulfonic-acid] | 4.35 | – | – | – | –
4 | Oc1ccc(C(F)(F)F)cc1 [4-(Trifluoromethyl)phenol] | 18.3 | 68.5 | – | 71.8 | 95.1
5 | CC(=O)Nc1c(C)n(C)n(-c2ccccc2)c1=O [4-Acetamidoantipyrin (=N-Acetyl-4-Aminoantipyrin, 4-AAA)] | 11.9 | 96 | 84.5 | 87.5 | –
6 | O=C(c1ccccc1)c1ccc(Cl)cc1 [4-Chlorobenzophenone] | 20.9 | 83.1 | 97.1 | 86.1 | 37.3
7 | Cc1c(NC=O)c(=O)n(-c2ccccc2)n1C [4-Formylaminoantipyrin (=4-FAA)] | 11.7 | 101 | 93.6 | 90.2 | 103
8 | Nc1c(I)c(C(=O)[O-])c(I)c(C(=O)[O-])c1I [5-Amino-2-4-6-triiodoisophthalic-acid] | 10.2 | – | – | – | –
9 | CC(=O)NCCCS(=O)(=O)[O-] [Acamprosat] | 4.93 | – | – | – | –
10 | CC1=CC(=O)[N-]S(=O)(=O)O1 [Acesulfam] | 9.43 | 93.2 | – | – | –
11 | Nc1ncnc2c1ncn2C1OC(CO)C(O)C1O (stereo not drawn) [Adenosine] | 7.57 | 82 | 69.4 | 73.7 | –
12 | O=c1ncnc2[nH][nH]cc1-2 [Allopurinol] | 6.21 | 113 | – | – | –
13 | OCC(O)C(O)C(OC1OC(CO)C(O)C(O)C1O)C(O)CO [D-Lactitol] | 2.76 | – | – | – | –
14 | CCOC(=O)Nc1cccc(OC(=O)Nc2ccccc2)c1 [Desmedipham D] | 18.6 | 90.8 | 117 | 106 | 76.2
15 | [NH3+]CCc1ccc(O)c(O)c1 [Dopamine] | 4.36 | 23.9 | – | – | –
16 | C[NH2+]CC(O)c1ccc(O)c(O)c1 (stereo not drawn) [Epinephrine] | 3.27 | 40.2 | 12.7 | 15.9 | 26.6
17 | N#Cc1nn(-c2c(Cl)cc(C(F)(F)F)cc2Cl)c(N)c1C(F)(F)F [Fipronil-desulfinyl] | 20.2 | 139 | – | – | –
18 | C#CCN1C(=O)COc2cc(F)c(N3C(=O)C4=C(CCCC4)C3=O)cc21 [Flumioxazin] | 18.8 | 99.7 | 77.4 | 91.6 | 64
19 | NC(=O)N=C(N)N [Guanylurea] | 3.13 | 42.6 | – | – | –
20 | O=c1ccc(=O)[nH][n-]1 [Maleic-hydrazide] | 5.88 | – | 12.8 | – | –
21 | Nc1nc(N)[nH+]c(N)n1 [Melamin] | 3.5 | 21.3 | – | – | –
22 | CNC(=O)Oc1cc(C)c(S(C)=O)c(C)c1 (stereo not drawn) [Methiocarb-sulfoxide] | 13.7 | 75.7 | 83 | 77.8 | 58.2
23 | CC[N-]S(=O)(=O)C(F)(F)C(F)(F)C(F)(F)C(F)(F)C(F)(F)C(F)(F)C(F)(F)C(F)(F)F [N-EtFOSA] | 22.8 | – | 57.6 | 66.9 | –
24 | CN(CC(=O)[O-])S(=O)(=O)C(F)(F)C(F)(F)C(F)(F)C(F)(F)C(F)(F)C(F)(F)C(F)(F)C(F)(F)F [N-MeFOSAA] | 23.3 | – | 80 | 95.4 | –
25 | C[N-]S(=O)(=O)C(F)(F)C(F)(F)C(F)(F)C(F)(F)C(F)(F)C(F)(F)C(F)(F)C(F)(F)F [N-MeFOSA] | 22.3 | – | 50.3 | 61.7 | –
26 | O=C([O-])C(F)(F)C(F)(F)C(F)(F)C(F)(F)F [PFPA] | 12.4 | – | – | – | –
27 | C[NH2+]CC(O)c1cccc(O)c1 (stereo not drawn) [Phenylephrine] | 5.47 | 83.2 | 82 | 78.5 | 86.1
28 | CCC(C)(C)C(=O)OC1CC(C)C=C2C=CC(C)C(CCC3CC(O)CC(=O)O3)C21 (stereo not drawn) [Simvastatin] | 22.9 | – | – | – | –
